Reference: patent US6737383B1, “Herbicidal oxadiazolidines” (priority 1999, dated 2004)

Key:
pigweed = experiment: Test B pre/postemergence pigweed; type: in vivo, Amaranthus retroflexus; conditions: for Redroot pigweed plant response rating: Postemergence; for Plant response rating, Redroot pigweed: Preemergence
Procedure, shortened: (§1)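 Response is a visual 0-to-10 score relative to untreated plants, where 0 means no effect and 10 means complete control, taken twelve to sixteen days after application. Treatments went onto soil at planting and onto foliage of 1- to 4-leaf plants, using a surfactant-containing non-phytotoxic solvent.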

wheat = experiment: Test B pre/postemergence wheat; type: in vivo, Triticum aestivum; conditions: for Wheat plant response rating: Postemergence; for Plant response rating, Wheat: Preemergence
Procedure, shortened: as §1

wild oat = experiment: Test B pre/postemergence wild oat; type: in vivo, Avena fatua; conditions: for Wild oats plant response rating: Postemergence; for Plant response rating, Wild oats: Preemergence
Procedure, shortened: as §1

crabgrass = experiment: Test B pre/postemergence crabgrass; type: in vivo, Digitaria sanguinalis; conditions: for Crabgrass plant response rating: Postemergence; for Plant response rating, Crabgrass: Preemergence
Procedure, shortened: as §1

soybean = experiment: Test B pre/postemergence soybean; type: in vivo, Glycine max; conditions: for Soybean plant response rating: Postemergence; for Plant response rating, Soybean: Preemergence
Procedure, shortened: as §1

surinam grass = experiment: Test B pre/postemergence surinam grass; type: in vivo, Brachiaria decumbens; conditions: for B. signalgrass plant response rating: Postemergence; for Plant response rating, B. signalgrass: Preemergence
Procedure, shortened: as §1

blackgrass = experiment: Test B pre/postemergence blackgrass; type: in vivo, Alopecurus myosuroides; conditions: for Blackgrass plant response rating: Postemergence; for Plant response rating, Blackgrass: Preemergence
Procedure, shortened: as §1

smallflower flatsedge = experiment: Test B flood test smallflower flatsedge; type: in vivo, Cyperus difformis
Procedure, shortened: (§2)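 Each value is a visual injury score relative to controls, with 10 meaning complete control and 0 no effect. Evaluation took place twelve to sixteen days after the 2-leaf-stage plants were treated and kept in the greenhouse.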

bamyardgrass = experiment: Test B flood test barnyardgrass; type: in vivo, Echinochloa crus-galli
Procedure, shortened: as §2

rape = experiment: Test B pre/postemergence rape; type: in vivo, Brassica napus; conditions: for Rape plant response rating: Postemergence; for Plant response rating, Rape: Preemergence
Procedure, shortened: as §1

bedstraw = experiment: Test B pre/postemergence bedstraw; type: in vivo, Galium aparine; conditions: Postemergence, Rate 1000 g/ha; scale 0 to 10 (0 no effect, 10 complete control)
Procedure, shortened: as §1

purple nutsedge = experiment: Test B pre/postemergence purple nutsedge; type: in vivo, Cyperus rotundus; conditions: for Nutsedge plant response rating: Postemergence; for Plant response rating, Nutsedge: Preemergence
Procedure, shortened: as §1

cocklebur = experiment: Test B pre/postemergence cocklebur; type: in vivo, Xanthium strumarium; conditions: for Cocklebur plant response rating: Postemergence; for Plant response rating, Cocklebur: Preemergence
Procedure, shortened: as §1

sugar beet = experiment: Test B pre/postemergence sugar beet; type: in vivo, Beta vulgaris; conditions: for Sugarbeets plant response rating: Postemergence; for Plant response rating, Sugarbeets: Preemergence
Procedure, shortened: as §1

corn = experiment: Test B pre/postemergence corn; type: in vivo, Zea mays; conditions: for Corn plant response rating: Postemergence; for Plant response rating, Corn: Preemergence
Procedure, shortened: as §1

velvetleaf = experiment: Test B pre/postemergence velvetleaf; type: in vivo, Abutilon theophrasti; conditions: for Velvetleaf plant response rating: Postemergence; for Plant response rating, Velvetleaf: Preemergence
Procedure, shortened: as §1

[1] = Rate 125 g/ha, scale of 0 to 10 where 0 is no effect and 10 is complete control
[2] = Rate 1000 g/ha, scale 0 to 10 (0 no effect, 10 complete control)
[3] = Rate 250 g/ha, scale 0 to 10, 0 is no effect, 10 is complete control
[4] = Rate 500 g/ha, scale 0 to 10, 0 is no effect, 10 is complete control
[5] = Rate 500 g/ha, scale of 0 to 10 where 0 is no effect and 10 is complete control
[6] = Rate 250 g/ha, scale 0 to 10 (0 no effect, 10 complete control)
[7] = Pre-emergence, Rate 1000 g/ha, scale 0 to 10 (0 no effect, 10 complete control)
[8] = Rate 125 g/ha, under heading Pre-emergence, flood test species, visual evaluation after twelve to sixteen days
[9] = Rate 250 g/ha, Pre-emergence (flood test species), scale 0 to 10, 0 is no effect, 10 is complete control
[10] = Rate 500 g/ha, Pre-emergence section of Table B, 0 to 10 scale (0 no effect, 10 complete control)

COC(=O)C(c1ccccc1)n1c(=O)on(C(=O)N(c2ccc(F)cc2)C(C)C)c1=O (centres unmarked) [Compound 677]
Redroot pigweed plant response rating (pigweed; [1]): 2 | Redroot pigweed plant response rating (pigweed; [2]): 4 | Plant response rating, Redroot pigweed (pigweed; [1]): 4 | Redroot pigweed plant response rating (pigweed; [3]): 3 | Redroot pigweed plant response rating (pigweed; [4]): 3 | Plant response rating, Redroot pigweed (pigweed; [2]): 8 | Wheat plant response rating (wheat; [1]): 0 | Wheat plant response rating (wheat; [2]): 0 | Plant response rating, Wheat (wheat; [1]): 0 | Plant response rating, Wheat (wheat; [5]): 0 | Wheat plant response rating (wheat; [3]): 0 | Wheat plant response rating (wheat; [4]): 0 | Plant response rating, Wheat (wheat; [2]): 0 | Wild oats plant response rating (wild oat; [1]): 0 | Wild oats plant response rating (wild oat; [2]): 0 | Plant response rating, Wild oats (wild oat; [1]): 0 | Plant response rating, Wild oats (wild oat; [5]): 0 | Wild oats plant response rating (wild oat; [3]): 0 | Wild oats plant response rating (wild oat; [4]): 0 | Plant response rating, Wild oats (wild oat; [2]): 2 | Crabgrass plant response rating (crabgrass; [1]): 0 | Crabgrass plant response rating (crabgrass; [2]): 6 | Plant response rating, Crabgrass (crabgrass; [1]): 3 | Plant response rating, Crabgrass (crabgrass; [6]): 6 | Plant response rating, Crabgrass (crabgrass; [5]): 7 | Crabgrass plant response rating (crabgrass; [3]): 0 | Crabgrass plant response rating (crabgrass; [4]): 4 | Plant response rating, Crabgrass (crabgrass; [2]): 9 | Soybean plant response rating (soybean; [1]): 0 | Soybean plant response rating (soybean; [2]): 7 | Plant response rating, Soybean (soybean; [1]): 0 | Plant response rating, Soybean (soybean; [5]): 0 | Soybean plant response rating (soybean; [3]): 1 | Soybean plant response rating (soybean; [4]): 2 | Plant response rating, Soybean (soybean; [2]): 0 | B. signalgrass plant response rating (surinam grass; [1]): 0 | B. signalgrass plant response rating (surinam grass; [2]): 1 | Plant response rating, B. signalgrass (surinam grass; [1]): 0 | Plant response rating, B. signalgrass (surinam grass; [6]): 3 | Plant response rating, B. signalgrass (surinam grass; [5]): 5 | B. signalgrass plant response rating (surinam grass; [3]): 0 | B. signalgrass plant response rating (surinam grass; [4]): 0 | Plant response rating, B. signalgrass (surinam grass; [2]): 9 | Blackgrass plant response rating (blackgrass; [1]): 0 | Blackgrass plant response rating (blackgrass; [2]): 4 | Plant response rating, Blackgrass (blackgrass; [1]): 0 | Plant response rating, Blackgrass (blackgrass; [6]): 0 | Plant response rating, Blackgrass (blackgrass; [5]): 0 | Blackgrass plant response rating (blackgrass; [3]): 0 | Blackgrass plant response rating (blackgrass; [4]): 1 | Plant response rating, Blackgrass (blackgrass; [2]): 4 | S. Flatsedge plant response rating (smallflower flatsedge; [7]): 0 | S. Flatsedge plant response rating (0 to 10 scale, 0 is no effect, 10 is complete control) (smallflower flatsedge; [8]): 0 | S. Flatsedge plant response rating (smallflower flatsedge; [9]): 0 | S. Flatsedge plant response rating (smallflower flatsedge; [10]): 0 | Barnyardgrass plant response rating (bamyardgrass; [7]): 0 | Barnyardgrass plant response rating (0 to 10 scale, 0 is no effect, 10 is complete control) (bamyardgrass; [8]): 0 | Barnyardgrass plant response rating (bamyardgrass; [9]): 0 | Barnyardgrass plant response rating (bamyardgrass; [10]): 0 | Rape plant response rating (rape; [1]): 0 | Rape plant response rating (rape; [2]): 0 | Plant response rating, Rape (rape; [1]): 0 | Plant response rating, Rape (rape; [5]): 0 | Rape plant response rating (rape; [3]): 0 | Rape plant response rating (rape; [4]): 0 | Plant response rating, Rape (rape; [2]): 3 | Bedstraw plant response rating (bedstraw): 0 | Nutsedge plant response rating (purple nutsedge; [1]): 0 | Nutsedge plant response rating (purple nutsedge; [2]): 0 | Plant response rating, Nutsedge (purple nutsedge; [1]): 0 | Plant response rating, Nutsedge (purple nutsedge; [5]): 0 | Nutsedge plant response rating (purple nutsedge; [3]): 0 | Nutsedge plant response rating (purple nutsedge; [4]): 0 | Plant response rating, Nutsedge (purple nutsedge; [2]): 0 | Cocklebur plant response rating (cocklebur; [1]): 0 | Cocklebur plant response rating (cocklebur; [2]): 1 | Plant response rating, Cocklebur (cocklebur; [1]): 0 | Plant response rating, Cocklebur (cocklebur; [6]): 0 | Plant response rating, Cocklebur (cocklebur; [5]): 0 | Cocklebur plant response rating (cocklebur; [3]): 0 | Cocklebur plant response rating (cocklebur; [4]): 1 | Plant response rating, Cocklebur (cocklebur; [2]): 0 | Sugarbeets plant response rating (sugar beet; [1]): 0 | Sugarbeets plant response rating (sugar beet; [2]): 1 | Plant response rating, Sugarbeets (sugar beet; [1]): 0 | Plant response rating, Sugarbeets (sugar beet; [5]): 0 | Sugarbeets plant response rating (sugar beet; [3]): 0 | Sugarbeets plant response rating (sugar beet; [4]): 1 | Plant response rating, Sugarbeets (sugar beet; [2]): 7 | Corn plant response rating (corn; [1]): 0 | Corn plant response rating (corn; [2]): 0 | Plant response rating, Corn (corn; [1]): 0 | Plant response rating, Corn (corn; [6]): 0 | Plant response rating, Corn (corn; [5]): 0 | Corn plant response rating (corn; [3]): 0 | Corn plant response rating (corn; [4]): 0 | Plant response rating, Corn (corn; [2]): 0 | Velvetleaf plant response rating (velvetleaf; [1]): 0 | Velvetleaf plant response rating (velvetleaf; [2]): 3 | Plant response rating, Velvetleaf (velvetleaf; [1]): 0 | Plant response rating, Velvetleaf (velvetleaf; [5]): 0 | Velvetleaf plant response rating (velvetleaf; [3]): 0 | Velvetleaf plant response rating (velvetleaf; [4]): 3 | Plant response rating, Velvetleaf (velvetleaf; [2]): 0
